From EP1144368B1, “ACETYLENIC ALPHA-AMINO ACID-BASED SULFONAMIDE HYDROXAMIC ACID TACE INHIBITORS” (priority 1999, dated 2000)

biological target: TACE (Homo sapiens, UniProt P78536); experiment: TACE inhibition (fluorescent peptidyl substrate); type: biochemical; conditions: In Vitro Inhibition of TACE, 1 uM; read-out: % Inhibition at 1 uM
Sequence (P78536 215-824): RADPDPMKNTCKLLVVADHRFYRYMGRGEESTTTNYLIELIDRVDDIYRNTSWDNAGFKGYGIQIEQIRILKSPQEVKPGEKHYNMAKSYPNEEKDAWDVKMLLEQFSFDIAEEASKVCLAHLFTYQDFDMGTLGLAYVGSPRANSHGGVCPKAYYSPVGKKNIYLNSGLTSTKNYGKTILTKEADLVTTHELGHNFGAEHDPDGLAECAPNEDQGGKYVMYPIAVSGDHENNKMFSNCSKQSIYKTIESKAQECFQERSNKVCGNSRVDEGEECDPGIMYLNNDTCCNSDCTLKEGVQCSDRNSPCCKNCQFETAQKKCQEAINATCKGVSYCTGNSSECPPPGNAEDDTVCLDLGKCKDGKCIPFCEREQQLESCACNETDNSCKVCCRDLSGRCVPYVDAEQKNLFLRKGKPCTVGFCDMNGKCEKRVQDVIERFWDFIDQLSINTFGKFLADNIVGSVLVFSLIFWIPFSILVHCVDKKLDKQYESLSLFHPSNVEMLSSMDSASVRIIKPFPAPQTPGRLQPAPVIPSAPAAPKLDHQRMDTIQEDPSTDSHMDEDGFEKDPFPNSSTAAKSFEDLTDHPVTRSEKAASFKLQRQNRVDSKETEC

Row | inhibition at 1 µM [%] | Structure (SMILES)
1 | 47.6 | CC#CCOc1ccc(S(=O)(=O)N[C@@H](CC)C(=O)NO)cc1 [Example 63]
2 | 67.4 | CC#CCOc1ccc(S(=O)(=O)N[C@@H](CCCNC(=N)N)C(=O)NO)cc1 [Example 64]
3 | 102 | CC#CCOc1ccc(S(=O)(=O)N[C@@H](CCCNC(N)=NS(=O)(=O)c2ccc(C)cc2)C(=O)NO)cc1 [Example 65]
4 | 45.6 | CC#CCOc1ccc(S(=O)(=O)N[C@@H](CC(N)=O)C(=O)NO)cc1 [Example 66]
5 | 46.2 | CC#CCOc1ccc(S(=O)(=O)N[C@@H](CC(=O)O)C(=O)NO)cc1 [Example 67]
6 | 70.4 | CC#CCOc1ccc(S(=O)(=O)N[C@@H](CC(=O)OC2CCCCC2)C(=O)NO)cc1 [Example 68]
7 | 21.1 | CC#CCOc1ccc(S(=O)(=O)N[C@@H](CCN)C(=O)NO)cc1 [Example 70]
8 | 86.7 | CC#CCOc1ccc(S(=O)(=O)N[C@@H](CC2CCCCC2)C(=O)NO)cc1 [Example 71]
9 | 57.4 | CC#CCOc1ccc(S(=O)(=O)N[C@H](C(=O)NO)C2CCCCC2)cc1 [Example 72]
10 | 79 | CC#CCOc1ccc(S(=O)(=O)N[C@@H](CSC(C)(C)C)C(=O)NO)cc1 [Example 73]
11 | 73.8 | CC#CCOc1ccc(S(=O)(=O)N[C@@H](CSCc2ccc(OC)cc2)C(=O)NO)cc1 [Example 74]
12 | 55.8 | CC#CCOc1ccc(S(=O)(=O)N[C@H](CC(N)=O)C(=O)NO)cc1 [Example 75]
13 | 29.7 | CC#CCOc1ccc(S(=O)(=O)N[C@H](CCCN)C(=O)NO)cc1 [Example 76]
14 | 105 | CC#CCOc1ccc(S(=O)(=O)N[C@H](CC2CCCCC2)C(=O)NO)cc1 [Example 77]
15 | 101 | CC#CCOc1ccc(S(=O)(=O)N[C@@H](C(=O)NO)C2CCCCC2)cc1 [Example 78]
16 | 107 | CC#CCOc1ccc(S(=O)(=O)N[C@H](CC(C)C)C(=O)NO)cc1 [Example 79]
17 | 105 | CC#CCOc1ccc(S(=O)(=O)N[C@H](CCSC)C(=O)NO)cc1 [Example 80]
18 | 106 | CC#CCOc1ccc(S(=O)(=O)N[C@H](Cc2ccccc2)C(=O)NO)cc1 [Example 81]
19 | 98.4 | CC#CCOc1ccc(S(=O)(=O)N2CCC[C@@H]2C(=O)NO)cc1 [Example 82]
20 | 105 | CC#CCOc1ccc(S(=O)(=O)N[C@H](Cc2c[nH]c3ccccc23)C(=O)NO)cc1 [Example 83]

same assay, conditions: Table 15: In Vitro Inhibition of TACE

Row | IC50 [nM] | Structure (SMILES)
21 | 451 ± 31 | CC#CCOc1ccc(S(=O)(=O)N[C@@H](CSC(C)(C)C)C(=O)NO)cc1 [Example 73]
22 | 5.7 ± 2.5 | CC#CCOc1ccc(S(=O)(=O)N[C@H](CC(C)C)C(=O)NO)cc1 [Example 79]

same assay, conditions: read-out: % Inhibition at 1 uM

Row | Structure (SMILES) | inhibition at 1 µM [%]
23 | CC#CCOc1ccc(S(=O)(=O)N[C@@H](C)C(=O)NO)cc1 [Example 62B, L-2-(4-But-2-ynyloxy-benzenesulfonylamino)-N-hydroxy-propionamide] | 46.2
24 | CC#CCOc1ccc(S(=O)(=O)NCCC(=O)NO)cc1 [Example 69] | 48.5

test system: THP-1 cells; experiment: THP-1 Soluble Protein Assay (LPS-stimulated; ELISA of TNF-a, TNF-R p75/80, TNF-R p55/60, IL-8); type: cell-based, human; conditions: Homo sapiens, THP-1, 3 µM; read-out: THP % Inhibition @ 3µM

Row | Structure (SMILES) | inhibition at 3 µM [%]
25 | CC#CCOc1ccc(S(=O)(=O)N2C[C@H](CC(=O)NCCN(C)C)SC(C)(C)[C@@H]2C(=O)NO)cc1 [Example 284, (3S,6S)-4-{[4-(2-Butynyloxy)phenyl]sulfonyl}-6-(2-{[2-(dimethylamino)ethyl]amino}-2-oxoethyl)-N-hydroxy-2,2-dimethyl-3-thiomorpholinecarboxamide] | 88
26 | CC#CCOc1ccc(S(=O)(=O)N2CSC(C)(C)[C@@H]2C(=O)NO)cc1 [Example 286, (4S)-3-{(4-(2-Butynyloxy)phenyl]sulfonyl}-N-hydroxy-5,5-dimethyl-1,3-thiazolidine-4-carboxamide] | 73
27 | CC#CCOc1ccc(S(=O)(=O)N2CCNCCC2C(=O)NO)cc1 (stereo not shown) [Example 292, 4-{[4-(2-Butynyloxy)phenyl]sulfonyl}-N-hydroxy-1,4-diazepane-5-carboxamide] | 83
28 | CC#CCOc1ccc(S(=O)(=O)N2C=CSC(C)(C)[C@@H]2C(=O)NO)cc1 [Example 379, (3S)-4-{[4-(2-Butynyloxy)phenyl]sulfonyl}-N-hydroxy-2,2-dimethyl-3,4-dihydro-2H-1,4-thiazine-3-carboxamide] | 85
